Measured values from US10669272B2, “Substituted naphthyridinone compounds useful as T cell activators” (BRISTOL-MYERS SQUIBB COMPANY, priority 2018, dated 2020).
Read-outs that look alike come from different tables or passages of the source.

How the values were obtained:
[1] = tested on: OT-1 CD8+ T cells with SIINFEKL-loaded MC38 tumor cells; assay: Murine cytotoxic T lymphocyte assay (IFN-γ, OT-1 CTL with MC38 tumor cells); type: cell-based, mouse; conditions: read-out: msCTL INFg IC50
Text: 5. Murine Cytotoxic T Lymphocyte Assay
An antigen-specific cytolytic T-cell (CTL) assay was developed to evaluate functionally the ability of DGKα and DGKζ inhibitors to enhance effector T cell mediated tumor cell killing activity. CD8+ T-cells isolated from the OT-1 transgenic mouse recognize antigen presenting cells, MC38, that present the ovalbumin derived peptide […]. Recognition of the cognate antigen initiates the cytolytic activity of the OT-1 antigen-specific CD8+ T cells.
Functional CTL cells were generated as follows: OT-1 splenocytes from 8-12 week old mice were isolated and expanded in the presence of the […] peptide at 1 μg/mL and mIL2 at 10 U/mL. After three days, fresh media with […] was added. On day 5 of the expansion, the CD8+ T cells were isolated and ready for use. Activated CTL cells may be stored frozen for 6 months. Separately, one million MC38 tumor cells were pulsed with 1 μg/mL of […]-OVA peptide for 3 hours at 37° C. The cells were washed (3×) with fresh media to remove excess peptide. Finally, CTL cells that were pretreated with DGK inhibitors for 1 hour in a 96-well U bottom plate were combined with the antigen loaded MC38 tumor cells at a 1:10 ratio. The cells were then spun at 700 rpm for 5 min and placed in an incubator overnight at 37° C. After 24 hours, the supernatant was collected for analysis of IFN-γ cytokine levels by AlphaLisa purchased from Perkin Elmer.

Human venous whole blood = assay: Human whole blood IFN-γ assay; type: cell-based; conditions: normalized to 3 μM reference compound with anti-CD3 plus anti-CD28 as 100% activation;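 further: blood from healthy donors exposed to compound for 1 h before stimulation with anti-CD3 and anti-CD28 at 1 µg/mL each, IFN-γ quantified in supernatant by AlphaLISA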
human DGKζ = target: T1, human DGKζ (Homo sapiens, UniProt Q13574); assay: DGKζ LIPGLO assay (extruded liposome substrate), in vitro DGK inhibition; type: biochemical; conditions: read-out: DGKz LIPGLO IC50
T1 construct: TVMV protease cleavage site (C); Hexa-His (C); made in house; host or cells: Sf9 insect cells (baculovirus, Bac-to-Bac)

human DGKα = target: T2, human DGKα (Homo sapiens, UniProt P23743); assay: DGKα LIPGLO assay (extruded liposome substrate), in vitro DGK inhibition; type: biochemical; conditions: read-out: DGKa LIPGLO IC50
T2 construct: TVMV protease cleavage site (C); Hexa-His (C); made in house; host or cells: Sf9 insect cells (baculovirus, Bac-to-Bac)

[2] = Homo sapiens, 24 h, human whole blood, read-out: INFg Whole Blood Normalized Agonist EC50
[3] = human whole blood, read-out: INFg Whole Blood Normalized Agonist EC50

T1 sequence (Q13574 with tags, fused parts or gaps isoform Q13574-4): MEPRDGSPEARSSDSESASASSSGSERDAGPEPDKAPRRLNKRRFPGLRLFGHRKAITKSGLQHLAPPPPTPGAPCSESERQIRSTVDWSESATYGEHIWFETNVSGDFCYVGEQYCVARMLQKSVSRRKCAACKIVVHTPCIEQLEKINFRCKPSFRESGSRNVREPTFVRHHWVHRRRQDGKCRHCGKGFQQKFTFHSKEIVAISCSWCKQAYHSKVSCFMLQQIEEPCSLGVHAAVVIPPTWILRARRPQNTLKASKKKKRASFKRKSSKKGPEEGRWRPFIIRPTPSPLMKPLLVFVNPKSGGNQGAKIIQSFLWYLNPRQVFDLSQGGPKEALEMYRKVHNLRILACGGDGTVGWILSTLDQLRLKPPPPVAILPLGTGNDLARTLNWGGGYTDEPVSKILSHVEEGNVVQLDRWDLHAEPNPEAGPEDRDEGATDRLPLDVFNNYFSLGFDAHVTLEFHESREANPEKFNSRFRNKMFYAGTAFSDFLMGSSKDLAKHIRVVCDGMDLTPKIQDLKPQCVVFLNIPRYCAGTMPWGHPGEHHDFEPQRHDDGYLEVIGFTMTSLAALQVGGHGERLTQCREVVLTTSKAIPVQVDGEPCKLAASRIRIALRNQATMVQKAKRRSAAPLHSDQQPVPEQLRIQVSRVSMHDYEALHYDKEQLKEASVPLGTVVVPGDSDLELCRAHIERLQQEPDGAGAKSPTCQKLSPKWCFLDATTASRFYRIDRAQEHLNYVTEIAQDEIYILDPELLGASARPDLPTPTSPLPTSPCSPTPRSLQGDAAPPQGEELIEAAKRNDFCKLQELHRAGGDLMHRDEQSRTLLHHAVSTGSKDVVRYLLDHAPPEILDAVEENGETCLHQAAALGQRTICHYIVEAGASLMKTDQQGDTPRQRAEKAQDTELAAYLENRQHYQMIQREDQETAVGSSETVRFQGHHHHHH
T2 sequence (P23743 with tags, fused parts or gaps): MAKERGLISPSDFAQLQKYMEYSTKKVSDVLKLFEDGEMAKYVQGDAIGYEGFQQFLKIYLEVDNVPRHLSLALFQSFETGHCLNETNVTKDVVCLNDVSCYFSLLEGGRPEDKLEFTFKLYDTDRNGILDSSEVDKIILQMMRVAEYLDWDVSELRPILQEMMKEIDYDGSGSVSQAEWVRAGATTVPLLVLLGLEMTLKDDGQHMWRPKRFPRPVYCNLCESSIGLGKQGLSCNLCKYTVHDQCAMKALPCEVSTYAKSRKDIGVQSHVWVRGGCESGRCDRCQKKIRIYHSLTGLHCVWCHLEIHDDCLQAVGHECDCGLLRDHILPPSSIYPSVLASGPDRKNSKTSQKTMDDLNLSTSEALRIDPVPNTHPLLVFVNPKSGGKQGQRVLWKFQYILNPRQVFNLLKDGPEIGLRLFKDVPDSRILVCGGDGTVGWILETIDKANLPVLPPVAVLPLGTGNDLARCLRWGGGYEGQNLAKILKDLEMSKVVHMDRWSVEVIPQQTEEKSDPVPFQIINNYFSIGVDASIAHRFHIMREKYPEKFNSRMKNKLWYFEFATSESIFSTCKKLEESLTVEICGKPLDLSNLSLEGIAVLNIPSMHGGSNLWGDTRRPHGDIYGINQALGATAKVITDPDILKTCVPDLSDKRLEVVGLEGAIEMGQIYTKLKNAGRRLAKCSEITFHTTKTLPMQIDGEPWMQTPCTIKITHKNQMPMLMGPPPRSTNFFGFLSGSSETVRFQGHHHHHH

Compound	IC50 (human DGKζ; liposome (LIPGLO) assay)	IC50 (human DGKα; liposome (LIPGLO) assay)	IC50 [1]	IC50 ([1]; Mus musculus, MC-38)	other results
Cn1c(=O)cc(N2CCN(C(c3ccc(F)cc3)c3ccc(F)cc3)CC2C2CC2)c2nc(C#N)ccc21 (single isomer, unassigned) [Example 23, 8-(4-(bis(4-fluorophenyl)methyl)-2-cyclopropylpiperazin-1-yl)-5-methyl-6-oxo-5,6-dihydro-1,5-naphthyridine-2-carbonitrile]	100000 nM	240000 nM	1400 nM		EC50 (Human venous whole blood; [2]): 10000 nM
Cn1c(=O)cc(N2CCN(C(c3ccc(F)cc3)c3ccc(F)cc3)CC2C2CC2)c2nc(C#N)ccc21 (single isomer, unassigned) [Example 24, 8-(4-(bis(4-fluorophenyl)methyl)-2-cyclopropylpiperazin-1-yl)-5-methyl-6-oxo-5,6-dihydro-1,5-naphthyridine-2-carbonitrile]	3900 nM	1500 nM	200 nM		EC50 (Human venous whole blood; [3]): 13000 nM
COC(=O)C1CN(c2cc(=O)n(C)c3ccc(C#N)nc23)CCN1C(c1ccc(F)cc1)c1ccc(F)cc1OC (single isomer, unassigned) [Example 69, Methyl 4-(6-cyano-1-methyl-2-oxo-1,2-dihydro-1,5-naphthyridin-4-yl)-1-((4-fluoro-2-methoxyphenyl)(4-fluorophenyl)methyl)piperazine-2-carboxylate]	850 nM	21000 nM	220 nM		EC50 (Human venous whole blood; [3]): 2500 nM
COC(=O)C1CN(c2cc(=O)n(C)c3ccc(C#N)nc23)CCN1C(c1ccc(F)cc1)c1ccc(F)cc1OC (single isomer, unassigned) [Example 71, Methyl 4-(6-cyano-1-methyl-2-oxo-1,2-dihydro-1,5-naphthyridin-4-yl)-1-((4-fluoro-2-methoxyphenyl)(4-fluorophenyl)methyl)piperazine-2-carboxylate]	52000 nM	240000 nM	3800 nM		EC50 (Human venous whole blood; [3]): 10000 nM
Cn1c(=O)cc(N2CCN(C(c3ccc(F)cc3)c3ccc(F)cc3)C(C(C)(C)F)C2)c2nc(C#N)ccc21 (single isomer, unassigned) [Example 80, 8-(4-(bis(4-fluorophenyl)methyl)-3-(2-fluoropropan-2-yl)piperazin-1-yl)-5-methyl-6-oxo-5,6-dihydro-1,5-naphthyridine-2-carbonitrile]	240000 nM	670 nM	3100 nM		EC50 (Human venous whole blood; [2]): 10000 nM
CC(C)C(C)(O)C1CN(c2cc(=O)n(C)c3ccc(C#N)nc23)CCN1C(c1ccc(F)cc1)c1ccc(F)cc1 (single isomer, unassigned) [Example 89, 8-(4-(bis(4-fluorophenyl)methyl)-3-(2-hydroxy-3-methylbutan-2-yl)piperazin-1-yl)-5-methyl-6-oxo-5,6-dihydro-1,5-naphthyridine-2-carbonitrile]	77000 nM	240000 nM	2600 nM		EC50 (Human venous whole blood; [3]): 20000 nM
Cc1ccc(C(C)N2CCN(c3c(C#N)c(=O)n(C)c4ccc(C#N)nc34)C[C@H]2C)cc1 (single isomer, unassigned) [Example 953]					IC50 ([1]; murine CTL, IFN-γ): 1700 nM; IC50 (human DGKζ; DGKζ liposome (LIPGLO) assay): 15000 nM; IC50 (human DGKα; DGKα liposome (LIPGLO) assay): 1100 nM
C[C@@H]1CN(c2cc(=O)n(C)c3ccc(C#N)nc23)[C@@H](C)CN1C(c1ccc(F)cc1)c1ccc(F)cc1 [Example 3, 8-((2S,5R)-4-(bis(4-fluorophenyl)methyl)-2,5-dimethylpiperazin-1-yl)-5-methyl-6-oxo-5,6-dihydro-1,5-naphthyridine-2-carbonitrile]				70 nM	
C[C@H]1CN(c2c(Cl)c(=O)n(C)c3ccc(C#N)nc23)CCN1C(c1ccc(F)cc1)c1ccc(F)cc1 [Example 36, (S)-8-(4-(bis(4-fluorophenyl)methyl)-3-methylpiperazin-1-yl)-7-chloro-5-methyl-6-oxo-5,6-dihydro-1,5-naphthyridine-2-carbonitrile]				1200 nM	
C[C@@H]1CN(c2c(C#N)c(=O)n(C)c3ccc(C#N)nc23)CCN1C(c1ccc(Cl)cc1)c1ccc(Cl)cc1 [Example 103, (R)-8-(4-(bis(4-chlorophenyl)methyl)-3-methylpiperazin-1-yl)-5-methyl-6-oxo-5,6-dihydro-1,5-naphthyridine-2,7-dicarbonitrile]				76 nM	
CC[C@H]1CN(C(c2ccc(F)cc2)c2ccc(F)cc2)CCN1c1cc(=O)n(C)c2ccc(C#N)nc12 [Example 127, (S)-8-(4-(bis(4-fluorophenyl)methyl)-2-ethylpiperazin-1-yl)-5-methyl-6-oxo-5,6-dihydro-1,5-naphthyridine-2-carbonitrile]				360 nM	EC50 (Human venous whole blood; Homo sapiens, 24 h, read-out: INFg Whole Blood Normalized Agonist EC50, human whole blood): 4300 nM
C[C@@H]1CN(C(c2ccc(F)cc2)c2ccc(F)cc2)[C@H](C)CN1c1cc(=O)n(C)c2ccc(C#N)nc12 [Example 131, 8-((2R,5R)-4-(bis(4-fluorophenyl)methyl)-2,5-dimethylpiperazin-1-yl)-5-methyl-6-oxo-5,6-dihydro-1,5-naphthyridine-2-carbonitrile]				5900 nM	
CC[C@@H]1CN(C(c2ccc(F)cc2)c2ccc(F)cc2)CCN1c1cc(=O)n(C)c2ccc(C#N)nc12 [Example 170, (R)-8-(4-(bis(4-fluorophenyl)methyl)-2-ethylpiperazin-1-yl)-5-methyl-6-oxo-5,6-dihydro-1,5-naphthyridine-2-carbonitrile]				2600 nM	

Now from value to molecule, other results behind:

IC50 (human DGKζ; liposome (LIPGLO) assay)	IC50 (human DGKα; liposome (LIPGLO) assay)	Compound	IC50 [1]	IC50 ([1]; Mus musculus, MC-38)	other results
760 nM	40000 nM	COC(=O)C1CN(c2cc(=O)n(C)c3ccc(C#N)nc23)CCN1C(c1ccc(F)cc1)c1ccc(F)cc1OC (single isomer, unassigned) [Example 72, Methyl 4-(6-cyano-1-methyl-2-oxo-1,2-dihydro-1,5-naphthyridin-4-yl)-1-((4-fluoro-2-methoxyphenyl)(4-fluorophenyl)methyl)piperazine-2-carboxylate]	78 nM		EC50 (Human venous whole blood; [3]): 1200 nM
310 nM	520 nM	COC(=O)C1CN(c2c([N+](=O)[O-])c(=O)n(C)c3ccc(C#N)nc23)CCN1C(c1ccc(F)cc1)c1ccc(F)cc1 (single isomer, unassigned) [Example 73, Methyl 1-(bis(4-fluorophenyl)methyl)-4-(6-cyano-1-methyl-3-nitro-2-oxo-1,2-dihydro-1,5-naphthyridin-4-yl)piperazine-2-carboxylate]		150 nM	EC50 (Human venous whole blood; [2]): 290 nM
8600 nM	23000 nM	COC(=O)C1CN(c2c(F)c(=O)n(C)c3ccc(C#N)nc23)CCN1C(c1ccc(F)cc1)c1ccc(F)cc1 (single isomer, unassigned) [Example 74, Methyl 1-(bis(4-fluorophenyl)methyl)-4-(6-cyano-3-fluoro-1-methyl-2-oxo-1,2-dihydro-1,5-naphthyridin-4-yl)piperazine-2-carboxylate]	290 nM		EC50 (Human venous whole blood; [2]): 8600 nM
400 nM	990 nM	COC(=O)C1CN(c2c(F)c(=O)n(C)c3ccc(C#N)nc23)CCN1C(c1ccc(F)cc1)c1ccc(F)cc1 (single isomer, unassigned) [Example 75, Methyl 1-(bis(4-fluorophenyl)methyl)-4-(6-cyano-3-fluoro-1-methyl-2-oxo-1,2-dihydro-1,5-naphthyridin-4-yl)piperazine-2-carboxylate]	23 nM		
1200 nM	7400 nM	CC(C)C(=O)C1CN(c2cc(=O)n(C)c3ccc(C#N)nc23)CCN1C(c1ccc(F)cc1)c1ccc(F)cc1 (single isomer, unassigned) [Example 86, 8-(4-(bis(4-fluorophenyl)methyl)-3-isobutyrylpiperazin-1-yl)-5-methyl-6-oxo-5,6-dihydro-1,5-naphthyridine-2-carbonitrile]	200 nM		EC50 (Human venous whole blood; [2]): 2900 nM
6600 nM	28000 nM	CC(C)C(=O)C1CN(c2cc(=O)n(C)c3ccc(C#N)nc23)CCN1C(c1ccc(F)cc1)c1ccc(F)cc1 (single isomer, unassigned) [Example 87, 8-(4-(bis(4-fluorophenyl)methyl)-3-isobutyrylpiperazin-1-yl)-5-methyl-6-oxo-5,6-dihydro-1,5-naphthyridine-2-carbonitrile]	450 nM		
